Data published in PubChem BioAssay (NCI).
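48-hour exposure; five concentrations; linearly interpolated endpoints. At the TGI there is no net growth.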

Legend:
Experiment in all cases: inhibition of tumour cell growth, NCI panel, 48 h
CAKI-1 renal = tested on: CAKI-1 renal
UACC-257 melanoma = tested on: UACC-257 melanoma
COLO 205 colon = tested on: COLO 205 colon
KM12 colon = tested on: KM12 colon
SK-MEL-28 melanoma = tested on: SK-MEL-28 melanoma
HOP-92 NSCLC = tested on: HOP-92 NSCLC
A498 renal = tested on: A498 renal
SK-MEL-2 melanoma = tested on: SK-MEL-2 melanoma
A549 NSCLC = tested on: A549 NSCLC
SF-539 CNS = tested on: SF-539 CNS
NCI-H522 lung = tested on: NCI-H522 lung
MDA-MB-231 breast = tested on: MDA-MB-231 breast
UACC-62 melanoma = tested on: UACC-62 melanoma
HT29 colon = tested on: HT29 colon
OVCAR-8 ovarian = tested on: OVCAR-8 ovarian
NCI/ADR-RES ovarian = tested on: NCI/ADR-RES ovarian
SK-OV-3 ovarian = tested on: SK-OV-3 ovarian
HS 578T breast = tested on: HS 578T breast
CCRF-CEM leukemia = tested on: CCRF-CEM leukemia
HCT-15 colon = tested on: HCT-15 colon
EKVX NSCLC = tested on: EKVX NSCLC
U251 CNS = tested on: U251 CNS
DU-145 prostate = tested on: DU-145 prostate
OVCAR-3 ovarian = tested on: OVCAR-3 ovarian
SNB-19 CNS = tested on: SNB-19 CNS
RPMI-8226 leukemia = tested on: RPMI-8226 leukemia
LOX IMVI melanoma = tested on: LOX IMVI melanoma
HOP-62 NSCLC = tested on: HOP-62 NSCLC
SF-295 CNS = tested on: SF-295 CNS
K-562 leukemia = tested on: K-562 leukemia
M14 melanoma = tested on: M14 melanoma
HL-60(TB) leukemia = tested on: HL-60(TB) leukemia
MDA-N = tested on: MDA-N
SK-MEL-5 melanoma = tested on: SK-MEL-5 melanoma
OVCAR-5 ovarian = tested on: OVCAR-5 ovarian
HCT-116 colon = tested on: HCT-116 colon
SN12C renal = tested on: SN12C renal
MALME-3M melanoma = tested on: MALME-3M melanoma
MCF7 breast = tested on: MCF7 breast
MOLT-4 leukemia = tested on: MOLT-4 leukemia
RXF 393 renal = tested on: RXF 393 renal
T-47D breast = tested on: T-47D breast
TK-10 renal = tested on: TK-10 renal
UO-31 renal = tested on: UO-31 renal
NCI-H23 lung = tested on: NCI-H23 lung
786-0 renal = tested on: 786-0 renal
IGROV1 ovarian = tested on: IGROV1 ovarian
PC-3 prostate = tested on: PC-3 prostate
SW-620 colon = tested on: SW-620 colon
NCI-H460 lung = tested on: NCI-H460 lung
BT-549 breast = tested on: BT-549 breast
NCI-H226 lung = tested on: NCI-H226 lung
SF-268 CNS = tested on: SF-268 CNS
ACHN renal = tested on: ACHN renal
SNB-75 CNS = tested on: SNB-75 CNS
OVCAR-4 ovarian = tested on: OVCAR-4 ovarian
MDA-MB-435 = tested on: MDA-MB-435
SR leukemia = tested on: SR leukemia
HCC-2998 colon = tested on: HCC-2998 colon

## CCCCN1CSC(=S)N(Cc2ccccc2)C1
CAKI-1 renal
  TGI: > 100 µM
UACC-257 melanoma
  TGI: 60.2 µM
COLO 205 colon
  TGI: 50.6 µM
KM12 colon
  TGI: > 100 µM
SK-MEL-28 melanoma
  TGI: > 100 µM
HOP-92 NSCLC
  TGI: > 100 µM
A498 renal
  TGI: > 100 µM
SK-MEL-2 melanoma
  TGI: > 100 µM
A549 NSCLC
  TGI: > 100 µM
SF-539 CNS
  TGI: > 100 µM
NCI-H522 lung
  TGI: > 71.8 µM
MDA-MB-231 breast
  TGI: > 100 µM
UACC-62 melanoma
  TGI: > 100 µM
HT29 colon
  TGI: > 100 µM
OVCAR-8 ovarian
  TGI: > 100 µM
NCI/ADR-RES ovarian
  TGI: > 100 µM
SK-OV-3 ovarian
  TGI: > 100 µM
HS 578T breast
  TGI: > 100 µM
CCRF-CEM leukemia
  TGI: 32.9 µM
HCT-15 colon
  TGI: > 100 µM
EKVX NSCLC
  TGI: 78.7 µM
U251 CNS
  TGI: > 100 µM
DU-145 prostate
  TGI: > 100 µM
OVCAR-3 ovarian
  TGI: > 69.8 µM
SNB-19 CNS
  TGI: > 100 µM
RPMI-8226 leukemia
  TGI: 59 µM
LOX IMVI melanoma
  TGI: > 100 µM
HOP-62 NSCLC
  TGI: > 100 µM
SF-295 CNS
  TGI: > 100 µM
K-562 leukemia
  TGI: > 100 µM
M14 melanoma
  TGI: > 100 µM
HL-60(TB) leukemia
  TGI: 19.4 µM
MDA-N
  TGI: > 100 µM
SK-MEL-5 melanoma
  TGI: 67.5 µM
OVCAR-5 ovarian
  TGI: > 100 µM
HCT-116 colon
  TGI: > 100 µM
SN12C renal
  TGI: > 100 µM
MALME-3M melanoma
  TGI: > 93.5 µM
MCF7 breast
  TGI: > 100 µM
MOLT-4 leukemia
  TGI: 78.2 µM
RXF 393 renal
  TGI: > 100 µM
T-47D breast
  TGI: > 100 µM
TK-10 renal
  TGI: > 100 µM
UO-31 renal
  TGI: > 100 µM
NCI-H23 lung
  TGI: > 100 µM
786-0 renal
  TGI: > 100 µM
IGROV1 ovarian
  TGI: > 100 µM
PC-3 prostate
  TGI: > 100 µM
SW-620 colon
  TGI: > 100 µM
NCI-H460 lung
  TGI: > 94.3 µM
BT-549 breast
  TGI: > 100 µM
NCI-H226 lung
  TGI: > 100 µM
SF-268 CNS
  TGI: > 100 µM
ACHN renal
  TGI: > 100 µM
SNB-75 CNS
  TGI: > 100 µM
OVCAR-4 ovarian
  TGI: > 100 µM
MDA-MB-435
  TGI: > 100 µM
SR leukemia
  TGI: > 100 µM

## Cc1cc(C)n(C2OC(CO)C(O)C(O)C2O)c(=S)c1C#N (configuration not stated)
CAKI-1 renal
  TGI: > 100 µM
UACC-257 melanoma
  TGI: > 100 µM
COLO 205 colon
  TGI: > 100 µM
KM12 colon
  TGI: > 100 µM
SK-MEL-28 melanoma
  TGI: > 100 µM
HOP-92 NSCLC
  TGI: > 100 µM
A498 renal
  TGI: > 100 µM
SK-MEL-2 melanoma
  TGI: > 100 µM
A549 NSCLC
  TGI: > 100 µM
SF-539 CNS
  TGI: > 100 µM
NCI-H522 lung
  TGI: > 100 µM
MDA-MB-231 breast
  TGI: > 100 µM
UACC-62 melanoma
  TGI: > 100 µM
HT29 colon
  TGI: > 100 µM
OVCAR-8 ovarian
  TGI: > 100 µM
NCI/ADR-RES ovarian
  TGI: > 100 µM
HS 578T breast
  TGI: > 100 µM
CCRF-CEM leukemia
  TGI: > 100 µM
HCT-15 colon
  TGI: > 100 µM
U251 CNS
  TGI: > 100 µM
DU-145 prostate
  TGI: > 100 µM
OVCAR-3 ovarian
  TGI: > 100 µM
SNB-19 CNS
  TGI: > 100 µM
RPMI-8226 leukemia
  TGI: > 100 µM
LOX IMVI melanoma
  TGI: > 100 µM
HOP-62 NSCLC
  TGI: > 100 µM
SF-295 CNS
  TGI: > 100 µM
M14 melanoma
  TGI: > 100 µM
HL-60(TB) leukemia
  TGI: > 100 µM
MDA-N
  TGI: > 100 µM
SK-MEL-5 melanoma
  TGI: > 100 µM
OVCAR-5 ovarian
  TGI: > 100 µM
HCT-116 colon
  TGI: > 100 µM
SN12C renal
  TGI: > 100 µM
MALME-3M melanoma
  TGI: > 100 µM
MCF7 breast
  TGI: > 100 µM
MOLT-4 leukemia
  TGI: > 100 µM
RXF 393 renal
  TGI: > 100 µM
T-47D breast
  TGI: > 100 µM
TK-10 renal
  TGI: > 100 µM
UO-31 renal
  TGI: > 100 µM
HCC-2998 colon
  TGI: > 100 µM
NCI-H23 lung
  TGI: > 100 µM
786-0 renal
  TGI: > 100 µM
IGROV1 ovarian
  TGI: > 100 µM
PC-3 prostate
  TGI: > 100 µM
SW-620 colon
  TGI: > 100 µM
NCI-H460 lung
  TGI: > 100 µM
BT-549 breast
  TGI: > 100 µM
NCI-H226 lung
  TGI: > 100 µM
SF-268 CNS
  TGI: > 100 µM
ACHN renal
  TGI: > 100 µM
SNB-75 CNS
  TGI: > 100 µM
OVCAR-4 ovarian
  TGI: > 100 µM
MDA-MB-435
  TGI: > 100 µM
SR leukemia
  TGI: > 100 µM

## Cc1nc2ccccc2n1C(=O)c1c(F)c(F)c(F)c(F)c1F
CAKI-1 renal
  TGI: 48.9 µM
UACC-257 melanoma
  TGI: 39.1 µM
COLO 205 colon
  TGI: 77.9 µM
KM12 colon
  TGI: 14.7 µM
SK-MEL-28 melanoma
  TGI: 82.9 µM
HOP-92 NSCLC
  TGI: 27.9 µM
A498 renal
  TGI: 57 µM
SK-MEL-2 melanoma
  TGI: 46.6 µM
A549 NSCLC
  TGI: > 100 µM
SF-539 CNS
  TGI: 29.5 µM
NCI-H522 lung
  TGI: 10.9 µM
MDA-MB-231 breast
  TGI: 32 µM
UACC-62 melanoma
  TGI: 44.1 µM
HT29 colon
  TGI: 27.5 µM
OVCAR-8 ovarian
  TGI: 40.6 µM
NCI/ADR-RES ovarian
  TGI: 42.4 µM
SK-OV-3 ovarian
  TGI: 62 µM
HS 578T breast
  TGI: > 100 µM
CCRF-CEM leukemia
  TGI: > 100 µM
HCT-15 colon
  TGI: 33.9 µM
EKVX NSCLC
  TGI: > 100 µM
U251 CNS
  TGI: 52.6 µM
DU-145 prostate
  TGI: 76.5 µM
OVCAR-3 ovarian
  TGI: 71.6 µM
SNB-19 CNS
  TGI: > 100 µM
RPMI-8226 leukemia
  TGI: 38.3 µM
LOX IMVI melanoma
  TGI: 25.1 µM
HOP-62 NSCLC
  TGI: 68.3 µM
SF-295 CNS
  TGI: > 100 µM
K-562 leukemia
  TGI: > 100 µM
M14 melanoma
  TGI: 25.9 µM
HL-60(TB) leukemia
  TGI: > 100 µM
MDA-N
  TGI: 33.2 µM
SK-MEL-5 melanoma
  TGI: 26.9 µM
OVCAR-5 ovarian
  TGI: 40.8 µM
HCT-116 colon
  TGI: 21.8 µM
SN12C renal
  TGI: 30.6 µM
MALME-3M melanoma
  TGI: 57.5 µM
MCF7 breast
  TGI: > 100 µM
MOLT-4 leukemia
  TGI: 27.1 µM
RXF 393 renal
  TGI: 33.5 µM
T-47D breast
  TGI: > 100 µM
TK-10 renal
  TGI: 66.3 µM
UO-31 renal
  TGI: 33.9 µM
HCC-2998 colon
  TGI: 34.2 µM
NCI-H23 lung
  TGI: 56.2 µM
IGROV1 ovarian
  TGI: 44.8 µM
PC-3 prostate
  TGI: 71.4 µM
SW-620 colon
  TGI: 49.8 µM
NCI-H460 lung
  TGI: 52 µM
BT-549 breast
  TGI: 39.5 µM
NCI-H226 lung
  TGI: 65.5 µM
SF-268 CNS
  TGI: > 100 µM
ACHN renal
  TGI: 60.7 µM
SNB-75 CNS
  TGI: 90.1 µM
OVCAR-4 ovarian
  TGI: 29 µM
MDA-MB-435
  TGI: 20 µM
SR leukemia
  TGI: > 100 µM
